Test results published in patent US5935969A, “Pyrido-thiopyrandoinazoles with antitumor activity” (University of Vermont, priority 1998, dated 1999).
≈ marks a conversion by molar mass, not a printed value. Where two headings read alike, the source gives them in different places.

Key:
S180 = experiment: MTT cytotoxicity, murine sarcoma S-180; type: cell-based; conditions: Mus musculus; murine sarcoma S-180, MTT assay; read-out: IC50 S180 (concentration causing 50% inhibition of tumor cells growth)
Protocol: (§1) The evaluation of the biological activity for the compounds of this invention was performed "in vitro" and "in vivo" following the protocols developed by the U.S. National Cancer Institute.
(§2) The evaluation of the "in vitro" cytotoxic activity of the compounds of the invention was performed using the following cell lines: a murine sarcoma (S-180) and its subline expressing multidrug resistance (S-180/A-10), a leukemia (L1210), a human colon adenocarcinoma cell line (LoVo) isolated from a metastatic nodule and its subline expressing multidrug resistance. This latter subline is resistant to a number of antitumor agents, among which are doxorubicin, VP-16 and vincristine.
(§3) The columns headed L1210, S180 LoVo and LoVo/Dx contain the IC50 values against said tumor cell lines, as above described.

L1210 = experiment: MTT cytotoxicity, leukemia L1210; type: cell-based; conditions: Mus musculus, MTT assay, read-out: IC50 L1210 (concentration causing 50% inhibition of tumor cells growth)
Protocol: as §1, §2, §3

LoVo = experiment: MTT cytotoxicity, human colon adenocarcinoma LoVo; type: cell-based; conditions: read-out: IC50 LoVo (concentration causing 50% inhibition of tumor cells growth)
Protocol: as §1, §2, §3
(§4) CYTOTOXICITY ON LOVO AND LOVO/DX WAS DETERMINED BY MTT ASSAY FOLLOWING 1

LoVo/Dx [1] = experiment: MTT cytotoxicity, multidrug-resistant subline LoVo/DX; type: cell-based, human; conditions: for IC50: Homo sapiens, read-out: IC50 LoVo/Dx (concentration causing 50% inhibition of tumor cells growth)
Protocol: as §1, §2
The columns headed L1210, S180 LoVo and LoVo/Dx contain the IC50 values against said tumor cell lines, as above described. […]
as §4

[2] = rat; cited from earlier work
[3] = humans; cited from earlier work
[4] = W.H.O. grade; phase I and phase II clinical trials; cited from earlier work
[5] = test system: cell histotypes developing resistance against doxorubicin mediated by overexpression of glycoprotein P; conditions: MDR; cited from earlier work
[6] = in vivo; cited from earlier work
[7] = cited from earlier work
LoVo/Dx [8] = conditions: in words; cited from earlier work
[9] = i.p., non-tumor bearing rats, equieffective antitumor dosages; cited from earlier work
[10] = test system: advanced breast cancer, acute leukemia and lymphoma; conditions: cited from earlier work
[11] = MTT assay, following 1 hour of drug exposure
[12] = LoVo/Dx multidrug-resistant subline, MTT assay, following 1 hour of drug exposure
[13] = in animals, versus mitoxantrone

Row | SMILES | IC50 (S180) | IC50 (L1210) | IC50 (LoVo; [11]) | IC50 (LoVo/Dx [1]; [12]) | also measured
1 | CN(C)CCn1nc2c3c(c([N+](=O)[O-])ccc31)Sc1cnccc1-2 [Example 3, N,N-dimethyl-5-nitro-2H-pyrido[4',3':5,6]thiopyrano[4,3,2-cd]indazole-2-ethanamine] | 0.14 µg/mL (≈ 0.41 µM) | 0.05 µg/mL (≈ 0.146 µM) | – | – | –
2 | CN(C)CCn1nc2c3c(c(NC(=O)CN)ccc31)Sc1ccncc1-2 [ex. 10-cpd 2, N'-[2-(2-dimethylamino)ethyl]-5-(2'-amino-acetylamino)-2H-pyrido[3',4':5,6]thiopyrano [4,3,2-cd]indazole] | – | – | 0.04 µg/mL (≈ 0.109 µM) | 0.21 µg/mL (≈ 0.57 µM) | –
3 | CN(C)CCn1nc2c3c(c([N+](=O)[O-])ccc31)Sc1ncccc1-2 [Example 1] | 0.17 µg/mL (≈ 0.498 µM) | 0.08 µg/mL (≈ 0.234 µM) | – | – | –
4 | CCN(CC)CCn1nc2c3c(c(N)ccc31)Sc1ccncc1-2 [ex. 12-cpd 1, N,N-diethyl-5-amino-2H-pyrido[3',4':5,6]thiopyrano[4,3,2-cd]indazole-2-ethanamine] | 0.0031 µg/mL (≈ 0.00913 µM) | 0.0015 µg/mL (≈ 0.00442 µM) | 0.036 µg/mL (≈ 0.106 µM) | 0.094 µg/mL (≈ 0.277 µM) | –
5 | CN(C)CCn1nc2c3c(c(N)ccc31)Sc1ccncc1-2 [Example 5, N,N-dimethyl-5-amino-2H-pyrido[3',4':5,6]thiopyrano[4,3,2-cd]indazole-2-ethanamine] | 0.0066 µg/mL (≈ 0.0212 µM) | 0.003 µg/mL (≈ 0.00963 µM) | 0.016 µg/mL (≈ 0.0514 µM) | 0.027 µg/mL (≈ 0.0867 µM) | –
6 | CCN(CC)CCn1nc2c3c(c([N+](=O)[O-])ccc31)Sc1ccncc1-2 [ex. 11-cpd 1, N,N-diethyl-5-nitro-2 H-pyrido[3',4': 5,6]thiopyrano[4,3,2-cd]indazole-2-ethanamine] | 0.0031 µg/mL (≈ 0.00839 µM) | 0.00061 µg/mL (≈ 0.00165 µM) | – | – | –
7 | O=C1c2c(O)cccc2-c2nn(CCNCCO)c3ccc(NCCNCCO)c1c23 [CI-941] | – | – | – | – | IC50 (LoVo; 1 h): 0.053 µg/mL (≈ 0.125 µM); nephrotoxicity [2]: marked nephrotoxicity; IC50 (LoVo/Dx [1]; LoVo/DX, 1 h): 44.5 µg/mL (≈ 105 µM); activity in the resistant cell line (LoVo/Dx [1]; LoVo/DX, in words): loses completely its activity; cardiotoxicity [3]: irreversible cardiotoxicity; symptoms of cardiac failure or acute cardiac events [3]: no symptoms of cardiac failure or acute cardiac events; leukopenia (dose limiting) [4]: grade 3 and 4; neutropenia (dose limiting) [4]: grade 4
8 | CN(C)CCn1nc2c3c(c(NCCN)ccc31)Sc1cnccc1-2 [ex.9-cpd 30, N'-[2-[2-(dimethylamino)ethyl]-2H-pyrido[4',3':5,6]thiopyrano[4,3,2-cd]indazol-5-yl]-1,2-ethanediamine] | 0.058 µg/mL (≈ 0.164 µM) | 0.014 µg/mL (≈ 0.0395 µM) | – | – | –
9 | O=C1c2ccccc2C(=O)c2c(NCCNCCO)ccc(NCCNCCO)c21 [ametantrone, 1,4-bis[(2-(2-hydroxyethylamino)ethyl)amino]anthracene-9,10-dione] | – | – | – | – | cross-resistance to doxorubicin-resistant cell histotypes [5]: cross-resistance; myelodepressive toxicity [6]: remarkable myelodepressive toxicity; cardiotoxicity relative to mitoxantrone [7, 13]: about 10 -fold less; potency relative to mitoxantrone [7, 13]: about 10 -fold less
10 | CN(C)CCn1nc2c3c(c([N+](=O)[O-])ccc31)Sc1ccncc1-2 [Example 4, N,N-dimethyl-5-nitro-2H-pyrido[3',4':5,6]thiopyranol[4,3,2cd]indazole-2-ethanamine] | 0.0032 µg/mL (≈ 0.00937 µM) | 0.00062 µg/mL (≈ 0.00182 µM) | – | – | –
11 | CN(C)CCNc1ccc2c3c(nn2CCN(C)C)-c2cccnc2Sc13 [Example 6, N'-[2-[2-(dimethylamino)ethyl]-2H-pyrido[3',2':5,6]thiopyrano[4,3,2-cd]indazol-5-yl]--N,N-dimethyl-1,2-ethanediamine] | 0.028 µg/mL (≈ 0.0732 µM) | 0.008 µg/mL (≈ 0.0209 µM) | 2.4 µg/mL (≈ 6.27 µM) | 2.6 µg/mL (≈ 6.8 µM) | –
12 | COc1cccc2c1C(=O)c1c(O)c3c(c(O)c1C2=O)C[C@@](O)(C(=O)CO)C[C@@H]3O[C@H]1C[C@H](N)[C@H](O)[C@H](C)O1 [doxorubicin, reference compound] | – | – | – | – | accumulation of doxorubicin in LoVo/DX (LoVo/Dx [8]): reduced accumulation; resistance of the LoVo/DX subline (LoVo/Dx [8]): resistant; IC50 (LoVo; 1 h): 0.58 µg/mL (≈ 1.07 µM); IC50 (LoVo/Dx [1]; LoVo/DX, 1 h): 53.8 µg/mL (≈ 99 µM)
13 | O=C1c2c(O)ccc(O)c2C(=O)c2c(NCCNCCO)ccc(NCCNCCO)c21 [mitoxantrone, 5,8-dihydroxy-1,4-bis[(2-(2-hydroxyethylamino)ethyl)amino]anthracene-9,10-dione] | – | – | – | – | IC50 (LoVo; 1 h): 0.024 µg/mL (≈ 0.054 µM); delayed toxicity [9]: a delayed toxicity is observed only with mitoxantrone; myelodepressive toxicity [6]: remarkable myelodepressive toxicity; cardiotoxicity in comparison to doxorubicin ([7]; animal studies): diminished cardiotoxicity in comparison to doxorubicin; IC50 (LoVo/Dx [1]; LoVo/DX, 1 h): 0.67 µg/mL (≈ 1.51 µM); clinical activity ([10]; clinical trials, advanced breast cancer, acute leukemia and lymphoma): particularly promising activity; clinical cardiotoxicity ([10]; mostly in patients previously treated with doxorubicin): some clinical cardiotoxicity has been observed
14 | CC[C@]1(O)C[C@H]2CN(CCc3c([nH]c4ccccc34)[C@@](C(=O)OC)(c3cc4c(cc3OC)N(C=O)[C@H]3[C@@](O)(C(=O)OC)[C@H](OC(C)=O)[C@]5(CC)C=CCN6CC[C@]43[C@@H]65)C2)C1 [vincristine] | – | – | – | – | resistance of the LoVo/DX subline (LoVo/Dx [8]): resistant
15 | CCN(CC)CCn1nc2c3c(c([N+](=O)[O-])ccc31)Sc1ncccc1-2 [ex. 11-cpd 2, N,N-diethyl-5-nitro-2H-pyrido[3',2':5,6]thiopyrano[4,3,2-cd]indazole-2-ethanamine] | 0.22 µg/mL (≈ 0.595 µM) | 0.2 µg/mL (≈ 0.541 µM) | – | – | –
16 | CN(C)CCn1nc2c3c(c(NC(=O)CN)ccc31)Sc1ncccc1-2 [ex. 10-cpd 1, N'-[2-(2-dimethylamino)ethyl]-5-(2'-amino-acetylamino)-2H-pyrido[3',2':5,6]thiopyrano [4,3,2-cd]indazole] | 0.22 µg/mL (≈ 0.597 µM) | 0.03 µg/mL (≈ 0.0814 µM) | – | – | –
17 | COc1cc(C2c3cc4c(cc3C(OC3OC5COC(C)OC5C(O)C3O)C3COC(=O)C23)OCO4)cc(OC)c1O (stereo not shown) [VP-16] | – | – | – | – | resistance of the LoVo/DX subline (LoVo/Dx [8]): resistant
18 | CN(C)CCn1nc2c3c(c(NCCN)ccc31)Sc1ncccc1-2 [Example 7, N'-[2-[2-(dimethylamino)lethyl]-2H-pyrido[3',2':5,6]thiopyrano[4,3,2-cd]indazol-5-yl]l-1,2-ethanediamine] | 0.058 µg/mL (≈ 0.164 µM) | 0.0125 µg/mL (≈ 0.0353 µM) | 0.027 µg/mL (≈ 0.0762 µM) | 16.8 µg/mL (≈ 47.4 µM) | –
19 | CN(C)CCn1nc2c3c(c(NCCN)ccc31)Sc1ccncc1-2 [Example 8] | 0.0029 µg/mL (≈ 0.00818 µM) | 0.0016 µg/mL (≈ 0.00451 µM) | 0.008 µg/mL (≈ 0.0226 µM) | 0.26 µg/mL (≈ 0.733 µM) | –
